These results are taken from patent publication US11534457B2, “Use of dextran sulfate” (priority 2017, dated 2022).

The test system of one test is mouse cortical neurons. The test can be described thus: PI staining (DNA content, cell cycle, cell numbers, apoptotic fraction), Acumen cytometry. It is filed as cell-based. Particulars: 0.01 and 0.1 mg/ml. As for the experimental part: The study aims were to evaluate the effect of LMW-DS on cell survival and expression of differentiation proteins in three cell types, cerebral cortical neurons, motor neurons and Schwann cells, using two concentrations 0.01 and 0.1 mg/ml of LMW-DS.
(§1) Neurons were cultured as 40,000 cells per well and Schwann cells 3,000 cells per. Cells were treated after 24 hours. The number of cells per well depended on the growth phenotype, proliferative capacity, etc.
PNGM was prepared by adding PNGM Singlequots (Lonza) to PNBM medium and pre-warmed to 37° C. Cells were thawed in a 37° C. water bath for no longer than 2 min and gently transferred into a 15 ml tube. 5 ml of medium was gently added drop-wise. Cell suspension was mixed by inverting the tube carefully twice. Cells were counted with a Cellometer AUTO T4 (Nexcelom Bioscience). 40,000 cells per well were seeded in previously coated 96-well plates. Cells were incubated at 37° C. with 5% CO2. After at 2-hour incubation 80 μl of medium was removed and replaced with 80 μl of fresh medium and cells were allowed to settle for 24 hours before drug treatment.
(§2) LMW-DS was prepared in the culture media of choice for each cell line and added to the respective wells in the doses 0.01 and 0.1 mg/ml. For cell survival assays cells were analyzed after 24 and 48 hours in eight identical wells/dose/time point. Differentiation and protein expression assay was analyzed after 48 hours, also in octuplicates.
Cells were fixated in the wells. Propidium iodine was used for viability assay. For immunohistochemical analysis, neurons were stained with βIII-tubulin, which is a tubulin specific for neurons. Schwann cells were stained for Myelin Basic Protein (MBP). For the negative controls PBST (0.1% Triton-X-100 in PBS) was applied instead of primary antibodies.
(§3) The Acumen cytometer allows the direct cytometric analysis of attached cells without prior detachment. […] The protein content of the cells can also be directly measured and expressed as either ‘total protein content’ or ‘mean protein content’.

In test [1] the test system is MBP expression in human Schwann cells. Description: Myelin basic protein (MBP) immunostaining. Conditions: 48 h. It is filed as cell-based. The procedure:
as §1
Schwann cells growth medium was prepared by adding 10% of fetal bovine serum (FBS, PAA) to high-glucose DMEM and pre-warmed to 37° C. Cells were thawed in a 37° C. water bath for no longer than 2 min. Cells were gently transferred to a tube containing 10 ml of medium and centrifuged at 200 RCF for 5 min. Pellet was resuspended in 5 ml of medium and cells were counted with the Cellometer. 3,000 cells per well were seeded in previously coated 96-well plates. Cells were incubated at 37° C. with 5% CO2. Cells were allowed to settle for 24 hours before drug treatment.
as §2
Cells were fixated in the wells. […]
as §3

Test [2] deals with /Mphg system [HUVEC and M1 macrophages+Zymosan (TLR2 ligand)]. The test can be described thus: BioMAP /Mphg system. The class given is cell-based, Human. The source says: In this study LMW-DS was characterized by profiling in the BioMAP® Diversity PLUS panel. The BioMAP® panel consists of human primary cell-based systems designed to model different aspects of the human body in an in vitro format. The 12 systems in the BioMAP® Diversity PLUS panel (Table 32) allow test agent characterization in an unbiased way across a broad set of systems modeling various human disease states. The BioMA®P systems are constructed with one or more primary cell types from healthy human donors, with stimuli, such as cytokines or growth factors, added to capture relevant signaling networks that naturally occur in human tissue or pathological conditions. Vascular biology is modeled in both a Th1 (3C system) and a Th2 (4H system) inflammatory environment, as well as in a Th1 inflammatory state specific to arterial smooth muscle cells (CASM3C system). […]
Systems are derived from either single cell types or co-culture systems. […] Test agents prepared in either DMSO (small molecules; final concentration 0.1%) or PBS (biologics) are added at the indicated concentrations 1-hr before stimulation, and remain in culture for 24-hrs or as otherwise indicated (48-hrs, MyoF system; 72-hrs, BT system (soluble readouts); 168-hrs, BT system (secreted IgG)). […]

For “low molecular weight dextran sulfate [LMW-DS]”, in the test with mouse cortical neurons, the cell numbers result was “significantly reduced” and the “fraction of apoptotic cells” value is given as “increased slightly”. Further, the “number of cells in the G2/M phase (PI content)” value in the test with mouse cortical neurons (24 and 48 h) is “appeared to increase the number of cells in the G2/M phase”. In addition, the MBP expression result in test [1] (0.01 and 0.1 mg/ml) is given as “significantly increased”. Further, the “size of MBP-positive cells vs control” value in test [1] is reported as “larger”. For the same substance, the Increased biomarker activity result in test [2] is “IL-8, CD69”.
